Measurements published in doi:10.1101/2024.11.06.622220v2 (biorxiv, 2024).
Read-outs that look alike come from different tables or passages of the source.

What was measured:
JaPTAL [1] = settings: read-out: apparent Km; also printed as 11.0 μM
JaPTAL [2] = test: PAL activity kinetics, Michaelis-Menten; format: biochemical, Joinvillea ascendens; settings: only the range for graminid PTALs is in the text

| Km (JaPTAL [2]) [µM] | SMILES | Km (JaPTAL [1]) [µM] |
| --- | --- | --- |
| – | N[C@@H](Cc1ccc(O)cc1)C(=O)O [Tyr] | 10.9 |
| 65.6 ± 1.4 | N[C@@H](Cc1ccccc1)C(=O)O [Phe] | – |
